Test results from patent US20260109715A1, “IMIDAZOPYRIDINE DERIVATIVES WITH BICYCLIC STRUCTURE” (PUBLIC UNIVERSITY CORPORATION YOKOHAMA CITY UNIVERSITY, priority 2022, published 2026).
Counter-ions that a name gives are not always drawn. Like-named read-outs stand apart in the source and are kept apart here.

Columns and labels:
[1] = system: Snhg1 transcript (NMD target gene) in EMT6 murine breast cancer cell line; assay: Measurement of NMD inhibitory activity in cells (increase in Snhg1 transcript, real-time PCR); parameters: species or system mouse; details: 6 hours treatment, concentration giving 1/2 of maximum Snhg1 fold change of positive control, read-out: Test Example 2 Cell-based Snhg1 EC50
Procedure: The NMD inhibitory activity of a compound of the present invention or a pharmaceutically acceptable salt thereof in cells can be measured, for example, by the method described below. EMT6 murine breast cancer cell line is treated with a test substance in vitro for 6 hours, and the increase in the transcript of Snhg1, a known NMD target gene, is quantified as an indicator of NMD inhibition. Quantification is performed by real-time PCR.
NMD inhibitory activity was measured by treating EMT6 murine breast cancer cell line (ATCC) with a test substance and quantifying the increase in the transcript of Snhg1, an NMD target gene (see F. Usui, et al., Scientific Reports volume 9, Article number: 1279 (2019) for the NMD target gene). That is, EMT6 cells were suspended in Waymouth's medium (Gibco, 15% FBS) and seeded in a 96-well plate at 2×10^4 cells/well. The cells were cultured for 1 day. The next day, serially diluted test substance (DMSO solution, final DMSO concentration: 2%) was added. After culturing for 6 hours, the supernatant was removed, and RNA was extracted using the RNeasy 96 kit (QIAGEN, 74182). After synthesizing cDNA using the High Capacity cDNA Reverse Transcription kit (Applied Biosystems, 4368813), the cDNA was mixed with PrimeTime Gene Expression Master Mix (Integrated DNA Technologies) and various probes, and gene expression was quantified using QuantStudio 6 Flex (Thermo Fisher Scientific Inc.). For the probe for the Snhg1 gene, which is an NMD target, Mm.PT.58.44039547 (FAM)(Integrated DNA Technologies) was used, and for the probe for the Tbp gene, which is an endogenous control, Mm00446973_m1 Tbp (VIC-PL) (Applied Biosystems) was used. The relative quantification of Snhg1 transcripts was calculated by the ΔΔCT method, using Thp as an endogenous control and setting the expression level of Snhg1 in untreated wells to 1.
A known NMD inhibitory compound (pyrimidine derivative Example 11i, Bioorg Med Chem Lett. 2012, 22(21), 6636-41) was used as a positive control drug for NMD inhibition. The NMD inhibitory activity of the test substance-added well was calculated as follows: the maximum fold change in Sngh1 expression in the positive control drug-added well relative to that in the untreated well was defined as the maximum NMD inhibitory activity, and the EC50 (compound concentration showing 50%/activity) of the test substance showing a ½-fold change was calculated by the GROWTH function of Microsoft Excel.

human SMG1 enzyme = human SMG1 enzyme (Homo sapiens, UniProt Q96Q15); assay: Measurement of SMG1 kinase activity (ADP-Glo Kinase Assay); format: biochemical; details: purified human SMG1 enzyme 5 nM, Upf1 peptide substrate, ATP 4 μM; qAC50 synonymous with IC50; read-out: Test Example 1 ADP-Glo IC50
Text: The SMG1 kinase inhibitory activity of a compound of the present invention or a pharmaceutically acceptable salt thereof can be measured, for example, by the method described below. Using purified human SMG1 protein and a substrate peptide as materials, the kinase activity can be measured by the ADP-Glo Kinase Assay; the SMG1 kinase inhibitory activity of a test substance can be evaluated by comparing the kinase activity in the presence and absence of the test substance.
The reaction was performed by the ADP-Glo Kinase Assay (Promega, catalog number V9102) using a 384-well plate under the conditions of an assay buffer (100 mM HEPES (pH 7.5), 50 mM NaCl, 10 mM MnCl2, 0.01% BSA, 0.1% Tween 20.5 mM TCEP). After incubating a test substance (DMSO solution; final DMSO concentration: 1%) and purified human SMG1 enzyme (Genes Dev. 2011 Jan. 15; 25(2): 153-164, produced by Daiichi Sankyo RD Novare Co., Ltd.; final concentration: 5 nM) at room temperature for 15 minutes, a substrate, Upf1 peptide (Biotin-(PEG8) QIDVALSQDSTYQG, produced by Eurofins genomics; final concentration: 8 μg/mL), and ATP (Promega: 4 μM) were added, and the mixture was reacted at room temperature for 60 minutes (see Non-Patent Literature R. Melero, et al., Structure Volume 22, Issue 8, 5 Aug. 2014, Pages 1105-1119 for the Upf1 peptide). ADP-Glo Reagent was added, and the mixture was reacted at room temperature for 40 minutes. Kinase Detection Reagent was added, and the mixture was reacted for another 30 minutes. The luminescence intensity was measured using EnVision (PerkinElmer).
The activity value (%) of the test substance-added well was calculated from the following formula, where the average luminescence intensity of the DMSO-added well was 0% and the average luminescence intensity of the SMG1 enzyme-free well was −100%.
The qAC50 (compound concentration showing 50% inhibition, synonymous with IC50) of the test substance was calculated using the activity value (%) at each concentration by Smart fit of Screener (Genedata). Smart fit is a general 4-parameter logistic regression model.

Sequence of human SMG1 enzyme (Q96Q15 whole entry): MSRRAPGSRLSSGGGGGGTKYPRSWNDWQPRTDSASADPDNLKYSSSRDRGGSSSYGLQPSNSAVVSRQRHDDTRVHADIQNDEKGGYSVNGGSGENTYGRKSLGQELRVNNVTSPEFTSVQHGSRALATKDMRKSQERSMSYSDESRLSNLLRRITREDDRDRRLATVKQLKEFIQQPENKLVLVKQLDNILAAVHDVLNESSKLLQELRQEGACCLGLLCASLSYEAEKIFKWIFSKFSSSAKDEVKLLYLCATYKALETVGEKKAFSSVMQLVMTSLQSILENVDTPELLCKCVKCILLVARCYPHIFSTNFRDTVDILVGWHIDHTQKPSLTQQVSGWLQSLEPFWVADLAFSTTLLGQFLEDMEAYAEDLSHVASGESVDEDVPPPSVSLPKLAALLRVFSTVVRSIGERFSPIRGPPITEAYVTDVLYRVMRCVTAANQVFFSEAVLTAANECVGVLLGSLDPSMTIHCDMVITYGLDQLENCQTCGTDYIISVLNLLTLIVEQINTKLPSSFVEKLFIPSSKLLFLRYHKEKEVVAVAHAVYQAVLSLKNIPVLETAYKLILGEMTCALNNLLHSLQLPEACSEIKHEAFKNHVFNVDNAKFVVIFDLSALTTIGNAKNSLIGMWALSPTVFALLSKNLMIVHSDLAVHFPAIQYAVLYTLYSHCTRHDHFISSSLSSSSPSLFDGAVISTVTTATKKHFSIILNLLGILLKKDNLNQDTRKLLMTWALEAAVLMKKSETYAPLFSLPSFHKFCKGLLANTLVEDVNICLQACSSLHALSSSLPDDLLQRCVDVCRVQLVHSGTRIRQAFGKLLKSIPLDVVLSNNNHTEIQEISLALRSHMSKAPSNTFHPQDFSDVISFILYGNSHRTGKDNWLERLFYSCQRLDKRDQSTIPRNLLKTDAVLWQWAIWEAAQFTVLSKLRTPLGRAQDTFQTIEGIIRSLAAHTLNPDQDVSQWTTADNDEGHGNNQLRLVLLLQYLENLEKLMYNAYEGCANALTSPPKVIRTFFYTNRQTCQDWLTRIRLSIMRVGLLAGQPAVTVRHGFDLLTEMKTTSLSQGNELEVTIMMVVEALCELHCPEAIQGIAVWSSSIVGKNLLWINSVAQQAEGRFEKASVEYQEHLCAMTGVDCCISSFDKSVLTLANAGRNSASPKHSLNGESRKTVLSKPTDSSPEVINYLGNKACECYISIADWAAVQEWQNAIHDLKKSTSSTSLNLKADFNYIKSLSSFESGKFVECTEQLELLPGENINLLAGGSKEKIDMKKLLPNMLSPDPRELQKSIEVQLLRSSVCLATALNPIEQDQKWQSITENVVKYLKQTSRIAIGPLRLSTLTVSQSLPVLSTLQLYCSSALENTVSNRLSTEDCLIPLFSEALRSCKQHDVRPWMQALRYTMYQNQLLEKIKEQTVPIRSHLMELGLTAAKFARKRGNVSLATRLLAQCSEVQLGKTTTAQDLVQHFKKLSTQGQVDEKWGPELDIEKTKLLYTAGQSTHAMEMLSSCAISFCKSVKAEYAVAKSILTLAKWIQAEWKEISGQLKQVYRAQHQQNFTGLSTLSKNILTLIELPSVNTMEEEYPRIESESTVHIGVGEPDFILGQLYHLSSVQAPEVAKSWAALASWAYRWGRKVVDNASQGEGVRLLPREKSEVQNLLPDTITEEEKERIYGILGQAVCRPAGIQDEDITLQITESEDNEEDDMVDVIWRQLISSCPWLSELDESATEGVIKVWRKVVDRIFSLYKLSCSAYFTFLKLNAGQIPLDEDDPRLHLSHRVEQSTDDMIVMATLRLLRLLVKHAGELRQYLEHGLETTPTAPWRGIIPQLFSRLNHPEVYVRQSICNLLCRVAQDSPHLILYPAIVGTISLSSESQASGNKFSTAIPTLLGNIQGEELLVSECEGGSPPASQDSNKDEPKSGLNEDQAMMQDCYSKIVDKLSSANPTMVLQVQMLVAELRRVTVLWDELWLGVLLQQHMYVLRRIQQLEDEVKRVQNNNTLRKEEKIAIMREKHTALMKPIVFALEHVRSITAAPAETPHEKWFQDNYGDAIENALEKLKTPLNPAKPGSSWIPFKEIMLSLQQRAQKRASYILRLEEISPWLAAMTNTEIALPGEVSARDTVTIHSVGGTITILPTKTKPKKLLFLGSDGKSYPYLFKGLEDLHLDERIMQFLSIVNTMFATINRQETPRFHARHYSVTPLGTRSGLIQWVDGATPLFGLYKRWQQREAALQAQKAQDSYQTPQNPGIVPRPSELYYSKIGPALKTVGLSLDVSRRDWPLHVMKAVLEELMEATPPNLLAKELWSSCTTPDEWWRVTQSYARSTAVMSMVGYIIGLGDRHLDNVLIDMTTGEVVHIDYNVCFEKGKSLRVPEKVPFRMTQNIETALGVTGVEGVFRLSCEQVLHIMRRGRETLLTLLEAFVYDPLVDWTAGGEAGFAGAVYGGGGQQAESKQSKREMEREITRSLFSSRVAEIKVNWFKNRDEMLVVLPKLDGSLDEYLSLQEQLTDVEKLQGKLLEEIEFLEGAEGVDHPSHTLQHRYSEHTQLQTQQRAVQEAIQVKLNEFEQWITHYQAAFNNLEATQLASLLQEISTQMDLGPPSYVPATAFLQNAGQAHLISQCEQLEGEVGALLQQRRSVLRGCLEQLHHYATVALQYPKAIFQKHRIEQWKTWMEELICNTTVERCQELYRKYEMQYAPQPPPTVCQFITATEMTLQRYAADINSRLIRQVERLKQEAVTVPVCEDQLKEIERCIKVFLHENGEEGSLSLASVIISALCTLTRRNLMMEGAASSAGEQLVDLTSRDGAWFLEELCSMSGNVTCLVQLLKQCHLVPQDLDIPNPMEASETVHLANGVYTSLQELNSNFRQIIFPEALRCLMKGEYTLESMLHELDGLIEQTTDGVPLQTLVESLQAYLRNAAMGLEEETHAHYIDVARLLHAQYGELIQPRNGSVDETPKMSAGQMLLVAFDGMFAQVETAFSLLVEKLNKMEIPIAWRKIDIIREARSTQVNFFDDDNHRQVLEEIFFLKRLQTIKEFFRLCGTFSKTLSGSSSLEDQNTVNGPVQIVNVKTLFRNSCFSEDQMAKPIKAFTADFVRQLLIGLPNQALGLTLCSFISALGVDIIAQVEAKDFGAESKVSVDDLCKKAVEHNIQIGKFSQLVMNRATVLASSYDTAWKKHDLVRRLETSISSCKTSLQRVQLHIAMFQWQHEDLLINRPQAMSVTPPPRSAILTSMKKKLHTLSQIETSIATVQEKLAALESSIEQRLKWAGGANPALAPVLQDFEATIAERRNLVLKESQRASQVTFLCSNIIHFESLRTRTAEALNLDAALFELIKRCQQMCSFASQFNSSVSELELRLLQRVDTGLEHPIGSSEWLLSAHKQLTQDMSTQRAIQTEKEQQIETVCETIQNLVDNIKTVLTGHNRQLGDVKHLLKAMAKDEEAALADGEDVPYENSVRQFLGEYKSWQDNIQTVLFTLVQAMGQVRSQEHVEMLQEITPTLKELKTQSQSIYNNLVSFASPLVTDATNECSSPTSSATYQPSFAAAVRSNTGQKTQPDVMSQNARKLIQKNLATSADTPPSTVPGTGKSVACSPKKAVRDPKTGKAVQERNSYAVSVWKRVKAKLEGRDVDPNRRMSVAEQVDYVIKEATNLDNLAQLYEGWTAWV

Molecule	EC50 ([1]; Mus musculus) [nM]	IC50 (human SMG1 enzyme) [nM]	EC50 [1] [nM]
Cc1cc2[nH]c(=O)c(-c3nc4c(C5CCOCC5)nc(Cl)cc4[nH]3)cc2c(C)n1 [Example 18, 3-[6-chloro-4-(tetrahydro-2H-pyran-4-yl)-1H-imidazo[4,5-c]pyridin-2-yl]-5,7-dimethyl-1,6-naphthyridin-2(1H)-one]	43	0.57	
Cc1c(OC(F)F)cccc1-c1nccc2[nH]c(=O)c(-c3nc4cnc(Cl)cc4[nH]3)cc12 [Example 33, 3-(6-chloro-1H-imidazo[4,5-c]pyridin-2-y1)-5-[3-(difluoromethoxy)-2-methylpheny1]-1,6-naphthyridin-2(1H)-one]	48	3	
O=c1[nH]c2ccnc(-c3cccc(CN4C5CCC4COC5)c3)c2cc1-c1nc2cnc(Cl)cc2[nH]1 [Example 47, 3-(6-chloro-1H-imidazo[4,5-c]pyridin-2-yl)-5-[3-(3-oxa-8-azabicyclo[3.2.1]octan-8-ylmethyl)phenyl]-1,6-naphthyridin-2(1H)-one]	117	2.1	
CS(=O)(=O)O.[2H]C([2H])([2H])Oc1ccccc1-c1nccc2[nH]c(=O)c(-c3nc4c(N[C@H]5CCOC5)nc(Cl)cc4[nH]3)cc12 [Example 134, 3-{6-chloro-4-[(3S)-tetrahydrofuran-3-ylamino]-1H-imidazo[4,5-c]pyridin-2-yl}-5-(2-[(2H3)methyloxy]phenyl)-1,6-naphthyridin-2(1H)-one methanesulfonate]	18	1.1	
Cc1nn2c(C)c1-c1nccc3[nH]c(=O)c(cc13)-c1nc3c(nc(Cl)cc3[nH]1)N(C)CCCCN(C)C(=O)C2 [Example 113, 7-chloro-10,15,20,31-tetramethyl-3,8,10,15,18,19,23,27,32-nonaazahexacyclo[20.6.2.1^2,5.1^18,21.0^4,9 .0^26,30]dotriacont-1(29),2,4,6,8,19,21(31),22(30),23,25-decaen-16,28-dione]	8.3	0.38	
[2H]C([2H])([2H])Oc1ccccc1-c1nccc2[nH]c(=O)c(-c3nc4c(C(C)O)nc(Cl)cc4[nH]3)cc12 (stereo not drawn) [Example 40, 3-[6-chloro-4-(1-hydroxyethyl)-1H-imidazo[4,5-c]pyridin-2-yl]-5-{2-[(^2H3)methyloxy]phenyl}-1,6-naphthyridin-2(1H)-one]	11	0.53	
CCCc1nc(Cl)cc2[nH]c(-c3cc4c(C)nccc4[nH]c3=O)nc12 [Example 20, 3-(6-chloro-4-propyl-1H-imidazo[4,5-c]pyridin-2-yl)-5-methyl-1,6-naphthyridin-2(1H)-one]	13	2	
CCc1nc(Cl)cc2[nH]c(-c3cc4c(-c5ccn(C(F)F)n5)nccc4[nH]c3=O)nc12 [Example 150, 3-(6-chloro-4-ethyl-1H-imidazo[4,5-c]pyridin-2-yl)-5-[1-(difluoromethyl)-1H-pyrazol-3-yl]-1,6-naphthyridin-2(1H)-one methanesulfonate]	66	3.6	

The remaining molecules from weak to strong by IC50 (human SMG1 enzyme), led by results:

EC50 ([1]; Mus musculus) [nM]	IC50 (human SMG1 enzyme) [nM]	EC50 [1] [nM]	Molecule
95	6		C[C@@H](Nc1nc(Cl)cc2[nH]c(-c3cc4c(N5CCN(C)CC5)nccc4[nH]c3=O)nc12)C(F)(F)F [Example 7, 3-(6-chloro-4-{[(2R)-1,1,1-trifluoropropan-2-yl]amino}-1H-imidazo[4,5-c]pyridin-2-yl)-5-(4-methylpiperazin-1-yl)-1,6-naphthyridin-2(1H)-one]
122	4		NC1CN(c2nc(Cl)cc3[nH]c(-c4cc5cnccc5[nH]c4=O)nc23)CC(F)(F)C1 (stereo not drawn) [Example 9, 3-[4-(5-amino-3,3-difluoropiperidin-1-yl)-6-chloro-1H-imidazo[4,5-c]pyridin-2-yl]-1,6-naphthyridin-2(1H)-one trifluoroacetate]
165	2.3		Cc1cc2ccc1-c1nccc3[nH]c(=O)c(cc13)-c1nc3c(nc(Cl)cc3[nH]1)N(C)CCC(=O)N(C)C2 [Example 109, 7-chloro-10,14,18-trimethyl-3,8,10,14,21,25,31-heptaazahexacyclo[18.6.2.2^16,19.1^2,5.0^4,9.0^24,28]hentriacont-1(27),2,4,6,8,16,18,20(28),21,23,29-undecaen-13,26-dione]
	1.9	40	5-(2-chloro-6-fluorophenyl)-3-(6-chloro-1H-imidazo[4,5-c]pyridin-2-y1)-1,6-naphthyridin-2(1H)-one [Example 30]
16	1.5		CCc1nc(Cl)cc2[nH]c(-c3cc4c(-c5cc(C)n(C)n5)nccc4[nH]c3=O)nc12 [Example 151, 3-(6-chloro-4-ethyl-1H-imidazo[4,5-c]pyridin-2-yl)-5-(1,5-dimethyl-1H-pyrazol-3-yl)-1,6-naphthyridin-2(1H)-one methanesulfonate]
510	1.3		O=C1CS(=O)(=O)c2cccc(c2)-c2nccc3[nH]c(=O)c(cc23)-c2nc3c(nc(Cl)cc3[nH]2)N2CCCN1CC2 [Example 112, 7-chloro-17-thia-3,8,10,14,24,28,35-heptaazaheptacyclo[21.6.2.2^10,14.1^2,5.1^18,22.0^4,9.0^27,31]pentatriacont-1(30)2,4,6,8,18(32),19,21,23(31),24,26-undecaen-15,29-dione17,17-dioxide]
37	0.96		C[C@@H]1C[C@H](O)CN1c1nc(Cl)cc2[nH]c(-c3cc4cnccc4[nH]c3=O)nc12 [Example 120, 3-{6-chloro-4-[(2R,4S)-4-hydroxy-2-methylpyrrolidin-1-yl]-1H-imidazo[4,5-c]pyridin-2-yl}-1,6-naphthyridin-2(1H)-one methanesulfonate]
5.7	0.7		CCc1nc(Cl)cc2[nH]c(-c3cc4c(-c5cnc(C)cc5OC)nccc4[nH]c3=O)nc12 [Example 60, 3-(6-chloro-4-ethyl-1H-imidazo[4,5-c]pyridin-2-yl)-5-(4-methoxy-6-methylpyridin-3-yl)-1,6-naphthyridin-2(1H)-one]
14	0.68		COc1cc(C(F)F)ncc1-c1nccc2[nH]c(=O)c(-c3nc4c(C)nc(Cl)cc4[nH]3)cc12 [Example 63, 3-(6-chloro-4-methyl-1H-imidazo[4,5-c]pyridin-2-yl)-5-[6-(difluoromethyl)-4-methoxypyridin-3-yl]-1,6-naphthyridin-2(1H)-one]
41	0.52		COc1cc(C)ncc1-c1nccc2[nH]c(=O)c(-c3nc4c(C)nc(Cl)cc4[nH]3)cc12 [Example 59, 3-(6-chloro-4-methyl-1H-imidazo[4,5-c]pyridin-2-yl)-5-(4-methoxy-6-methylpyridin-3-yl)-1,6-naphthyridin-2(1H)-one]
